Reference: publication PMC5516258, “A Nonredundant Phosphopantetheinyl Transferase, PptA, Is a Novel Antifungal Target That Directs Secondary Metabolite, Siderophore, and Lysine Biosynthesis in Aspergillus fumigatus and Is Critical for Pathogenicity” (mBio, 2017)
Read-outs that look alike come from different tables or passages of the source.

Assays:
[1] = biological target: T1, PptA (AFPptA; AFPptA-GST) (Aspergillus fumigatus, UniProt B0XWE4); assay: fluorescence polarization, transfer of BODIPY-TMR-labelled phosphopantetheine from CoA to AarA; format: biochemical
T1 construct: gene AFUB_024520
T1 sequence (B0XWE4 entry or part of it): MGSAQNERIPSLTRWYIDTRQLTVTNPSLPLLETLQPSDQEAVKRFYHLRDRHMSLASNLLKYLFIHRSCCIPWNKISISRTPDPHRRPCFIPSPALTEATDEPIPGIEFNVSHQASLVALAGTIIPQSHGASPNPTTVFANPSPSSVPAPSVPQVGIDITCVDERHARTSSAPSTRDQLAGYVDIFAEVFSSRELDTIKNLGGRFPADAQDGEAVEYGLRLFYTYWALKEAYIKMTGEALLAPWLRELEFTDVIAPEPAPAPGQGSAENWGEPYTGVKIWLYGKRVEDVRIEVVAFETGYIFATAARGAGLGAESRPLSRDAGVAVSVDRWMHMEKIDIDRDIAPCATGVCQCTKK

HS-PPTase (AASDHPPT) = biological target: T2, HS-PPTase (AASDHPPT) (Homo sapiens, UniProt Q9NRN7); assay: fluorescence polarization, transfer of BODIPY-TMR-labelled phosphopantetheine from CoA to human ACP domain; format: biochemical; details: read-out: no inhibition at concentrations up to 200 μM
T2 construct: cDNA cloned into pET43.1, E. coli BL21(DE3), Ni-NTA purified
T2 sequence (Q9NRN7 1-309): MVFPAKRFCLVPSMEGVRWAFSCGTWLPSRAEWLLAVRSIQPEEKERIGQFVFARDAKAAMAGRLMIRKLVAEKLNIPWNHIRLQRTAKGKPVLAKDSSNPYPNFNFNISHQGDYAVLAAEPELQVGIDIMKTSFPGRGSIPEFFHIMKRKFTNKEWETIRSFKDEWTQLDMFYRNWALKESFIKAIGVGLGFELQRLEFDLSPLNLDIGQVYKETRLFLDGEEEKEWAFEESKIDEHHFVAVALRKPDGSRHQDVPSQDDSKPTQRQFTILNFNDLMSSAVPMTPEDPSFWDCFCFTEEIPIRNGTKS

**Q.** How did the IC50 [1] turn out when N=C1Sc2ccccc2C2=NCCCN12 [PD 404,182] was run?
**A.** Its IC50 is 3.9 µM.

**Q.** Clc1ccc(C(c2ccc(Cl)cc2)n2cc[n+](CC(OCc3ccc(Cl)cc3Cl)c3ccc(Cl)cc3Cl)c2)cc1 (stereo not shown) [calmidazolium chloride] was tested. Which IC50 ([1]; acceptor A. fumigatus AarA 750 ng, BODIPY-TMR-CoA, 62.5 mM bis-Tris pH 6.5, 12.5 mM Mg chloride, room temperature, 100 ng PptA, triplicate, doubling dilutions from 100 µM) did it give?
**A.** The IC50 was 19.2 µM.

**Q.** With O=Nc1ccc2oc(=O)ccc2c1 [6-nitroso-1,2-benzopyrone] as the compound, how does the IC50 [1] read?
**A.** The IC50 was 35.2 µM.

**Q.** And the IC50 (HS-PPTase (AASDHPPT))?
**A.** Its IC50 is greater than 200 µM.
